# According to ChEMBL document CHEMBL1148034, “On the structures of crambescins B and C1” (J Nat Prod, 1993):
# Test system: L1210
# Test: Cytotoxicity against mouse L1210 cells after 72 hrs
# Format: functional, cell-based
# Settings: L1210, 72 h
smiles,measurement,value
CCCCCCCCC[C@H]1NC(N)=N[C@@]2(CCCO2)[C@H]1C(=O)OCCCCCCCNC(=N)N [CRAMBESCIN B],IC50,1 µg/mL
